According to ChEMBL document CHEMBL1156365, “Polyacetylene carboxylic acids from Mitrephora celebica” (2001):
Converted amounts (≈) assume the structure as drawn.

How the values were obtained:
Staphylococcus aureus = assay: Antibacterial activity against methicillin-resistant Staphylococcus aureus by NCCLS M7-A4 method; type: functional
[1] = tested on: Mycolicibacterium smegmatis; assay: Antibacterial activity against Mycobacterium smegmatis; type: functional

SMILES | MIC (Staphylococcus aureus) [µg/mL] | MIC [1] [µg/mL]
CN[C@H](CC(C)C)C(=O)N[C@H]1C(=O)N[C@@H](CC(N)=O)C(=O)N[C@H]2C(=O)N[C@H]3C(=O)N[C@H](C(=O)N[C@H](C(=O)O)c4cc(O)cc(O)c4-c4cc3ccc4O)[C@H](O)c3ccc(c(Cl)c3)Oc3cc2cc(c3O[C@@H]2O[C@H](CO)[C@@H](O)[C@H](O)[C@H]2O[C@H]2C[C@](C)(N)[C@H](O)[C@H](C)O2)Oc2ccc(cc2Cl)[C@H]1O [VANCOMYCIN] | 0.8 (≈ 0.552 µM) | 
C=CCCC#CC#CC#CCCCCCCCC(=O)O [OROPHEIC ACID] | 12.5 (≈ 46.2 µM) | 12.5 (≈ 46.2 µM)
C=CCC/C=C/C#CC#CCCCCCCCC(=O)O | 25 (≈ 91.8 µM) | 12.5 (≈ 45.9 µM)
NNC(=O)c1ccncc1 [ISONIAZID] |  | 0.8 (≈ 5.83 µM)
